Data as given in PubChem BioAssay AID2060328 (Molecular Pharmacology Branch, DTP, NCI, 2025).
Where “and” joins values, the source holds several entries; their conditions need not be identical. Equal values may be shown once.

Tested on: MDA-MB-231 multicell spheroids, viability (%T/C)
Experiment: Anticancer human tumor MDA-MB-231 cell line growth inhibition [IpAb];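 also: viability read after seven days of drug exposure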;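 as to viability, T/C: 100% = DMSO vehicle control viability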
Conditions: for viability, T/C: stronger effect = lower value
Method in brief: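 Combinations with ipatasertib or abemaciclib were tested on tumour spheroids holding HUVEC (25%) and MSC (15%) alongside 60% malignant cells. Top concentration was at or near clinical Cmax (10 microM if undefined), descending in half-log steps.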

[1] = curve of first compound, second compound 0.1 µM
[2] = curve of first compound, second compound 0.316 µM
[3] = curve of first compound, second compound 1 µM
[4] = second compound 0.1 µM, first compound 0.0316 µM
[5] = second compound 0.1 µM, first compound 0.1 µM
[6] = second compound 0.1 µM, first compound 0.316 µM
[7] = second compound 0.1 µM, first compound 1 µM
[8] = second compound 0.1 µM, first compound 3.16 µM
[9] = second compound 0.1 µM, first compound 10 µM
[10] = second compound 0.316 µM, first compound 0.0316 µM
[11] = second compound 0.316 µM, first compound 0.1 µM
[12] = second compound 0.316 µM, first compound 0.316 µM
[13] = second compound 0.316 µM, first compound 1 µM
[14] = second compound 0.316 µM, first compound 3.16 µM
[15] = second compound 0.316 µM, first compound 10 µM
[16] = second compound 1 µM, first compound 0.0316 µM
[17] = second compound 1 µM, first compound 0.1 µM
[18] = second compound 1 µM, first compound 0.316 µM
[19] = second compound 1 µM, first compound 1 µM
[20] = second compound 1 µM, first compound 3.16 µM
[21] = second compound 1 µM, first compound 10 µM
[22] = curve of first compound, second compound 0.01 µM
[23] = curve of first compound, second compound 0.0316 µM
[24] = second compound 0.01 µM, first compound 0.0316 µM
[25] = second compound 0.01 µM, first compound 0.1 µM
[26] = second compound 0.01 µM, first compound 0.316 µM
[27] = second compound 0.01 µM, first compound 1 µM
[28] = second compound 0.0316 µM, first compound 0.0316 µM
[29] = second compound 0.0316 µM, first compound 0.1 µM
[30] = second compound 0.0316 µM, first compound 0.316 µM
[31] = second compound 0.0316 µM, first compound 1 µM

C=CCn1c(=O)c2cnc(Nc3ccc(N4CCN(C)CC4)cc3)nc2n1-c1cccc(C(C)(C)O)n1
viability, T/C (compound 0.0316 µM): 99.7% and 119%
viability, T/C (compound 0.1 µM): 84.6% and 96.2%
viability, T/C (compound 0.316 µM): 34.6% and 37.5%
viability, T/C (compound 1 µM): 18.5% and 17.7%
viability, T/C (compound 3.16 µM): 16.1% and 15.1%
viability, T/C (compound 10 µM): 21.8% and 20.7%
IC50 (curve of compound): 221 nM and 246 nM

CCCS(=O)(=O)Nc1ccc(F)c(C(=O)c2c[nH]c3ncc(-c4ccc(Cl)cc4)cc23)c1F + CC(C)NCC(C(=O)N1CCN(c2ncnc3c2C(C)CC3O)CC1)c1ccc(Cl)cc1
IC50 [1]: 8310 nM
IC50 [2]: 6040 nM
IC50 [3]: 5310 nM
IC50 (curve of first compound, second compound 3.16 µM): 1760 nM
IC50 (curve of first compound, second compound 10 µM): < 31.6 nM
viability, T/C [4]: 106%
viability, T/C [5]: 106%
viability, T/C [6]: 104%
viability, T/C [7]: 97.2%
viability, T/C [8]: 75.4%
viability, T/C [9]: 45.1%
viability, T/C [10]: 98.1%
viability, T/C [11]: 95.9%
viability, T/C [12]: 92.2%
viability, T/C [13]: 87.3%
viability, T/C [14]: 61.2%
viability, T/C [15]: 41.1%
viability, T/C [16]: 80.1%
viability, T/C [17]: 84.8%
viability, T/C [18]: 79.8%
viability, T/C [19]: 71.3%
viability, T/C [20]: 60.1%
viability, T/C [21]: 38.3%
viability, T/C (second compound 3.16 µM, first compound 0.0316 µM): 59.3%
viability, T/C (second compound 3.16 µM, first compound 0.1 µM): 68.2%
viability, T/C (second compound 3.16 µM, first compound 0.316 µM): 61.7%
viability, T/C (second compound 3.16 µM, first compound 1 µM): 56.7%
viability, T/C (second compound 3.16 µM, first compound 3.16 µM): 42.9%
viability, T/C (second compound 3.16 µM, first compound 10 µM): 30.9%
viability, T/C (second compound 10 µM, first compound 0.0316 µM): 45.4%
viability, T/C (second compound 10 µM, first compound 0.1 µM): 48.2%
viability, T/C (second compound 10 µM, first compound 0.316 µM): 44.2%
viability, T/C (second compound 10 µM, first compound 1 µM): 36.6%
viability, T/C (second compound 10 µM, first compound 3.16 µM): 35%
viability, T/C (second compound 10 µM, first compound 10 µM): 27.6%

CC1(C)CCC(CN2CCN(c3ccc(C(=O)NS(=O)(=O)c4ccc(NCC5CCOCC5)c([N+](=O)[O-])c4)c(Oc4cnc5[nH]ccc5c4)c3)CC2)=C(c2ccc(Cl)cc2)C1 + CCN1CCN(Cc2ccc(Nc3ncc(F)c(-c4cc(F)c5nc(C)n(C(C)C)c5c4)n3)nc2)CC1
IC50 [22]: 5850 nM
IC50 [23]: 5150 nM
IC50 [1]: 4260 nM
IC50 [2]: < 31.6 nM
IC50 [3]: 3220 nM
viability, T/C [24]: 102%
viability, T/C [25]: 97.5%
viability, T/C [26]: 100%
viability, T/C [27]: 101%
viability, T/C (second compound 0.01 µM, first compound 3.16 µM): 94.8%
viability, T/C (second compound 0.01 µM, first compound 10 µM): 11%
viability, T/C [28]: 86.7%
viability, T/C [29]: 81.8%
viability, T/C [30]: 82.2%
viability, T/C [31]: 83.2%
viability, T/C (second compound 0.0316 µM, first compound 3.16 µM): 78.6%
viability, T/C (second compound 0.0316 µM, first compound 10 µM): 11.2%
viability, T/C [4]: 64.2%
viability, T/C [5]: 66.6%
viability, T/C [6]: 63.9%
viability, T/C [7]: 65%
viability, T/C [8]: 66.4%
viability, T/C [9]: 6.54%
viability, T/C [10]: 50.5%
viability, T/C [11]: 50.4%
viability, T/C [12]: 48.2%
viability, T/C [13]: 47.9%
viability, T/C [14]: 44.8%
viability, T/C [15]: 7.02%
viability, T/C [16]: 48.2%
viability, T/C [17]: 52.7%
viability, T/C [18]: 52.9%
viability, T/C [19]: 53.4%
viability, T/C [20]: 50.7%
viability, T/C [21]: 7.14%

COc1c(OCCCN2CCOCC2)ccc2c3n(c(=NC(=O)c4cnc(N)nc4)nc12)CCN3 + CCN1CCN(Cc2ccc(Nc3ncc(F)c(-c4cc(F)c5nc(C)n(C(C)C)c5c4)n3)nc2)CC1
IC50 [22]: 24 nM
IC50 [23]: 14.6 nM
IC50 [1]: 4.68 nM
IC50 [2]: < 3.16 nM
IC50 [3]: < 3.16 nM
viability, T/C (second compound 0.01 µM, first compound 0.00316 µM): 81.7%
viability, T/C (second compound 0.01 µM, first compound 0.01 µM): 59%
viability, T/C [24]: 50.2%
viability, T/C [25]: 37.7%
viability, T/C [26]: 31.7%
viability, T/C [27]: 37.7%
viability, T/C (second compound 0.0316 µM, first compound 0.00316 µM): 65.5%
viability, T/C (second compound 0.0316 µM, first compound 0.01 µM): 53.1%
viability, T/C [28]: 43.9%
viability, T/C [29]: 34.1%
viability, T/C [30]: 29.7%
viability, T/C [31]: 38.5%
viability, T/C (second compound 0.1 µM, first compound 0.00316 µM): 53.7%
viability, T/C (second compound 0.1 µM, first compound 0.01 µM): 44.2%
viability, T/C [4]: 36.6%
viability, T/C [5]: 31.1%
viability, T/C [6]: 29.1%
viability, T/C [7]: 43.4%
viability, T/C (second compound 0.316 µM, first compound 0.00316 µM): 46.4%
viability, T/C (second compound 0.316 µM, first compound 0.01 µM): 41.6%
viability, T/C [10]: 35.2%
viability, T/C [11]: 31.7%
viability, T/C [12]: 34.4%
viability, T/C [13]: 67.5%
viability, T/C (second compound 1 µM, first compound 0.00316 µM): 53%
viability, T/C (second compound 1 µM, first compound 0.01 µM): 48.6%
viability, T/C [16]: 46.8%
viability, T/C [17]: 44.8%
viability, T/C [18]: 55.1%
viability, T/C [19]: 128%
